{"source": "paper PMC9506414", "about": "“Novel 2,6,9-Trisubstituted Purines as Potent CDK Inhibitors Alleviating Trastuzumab-Resistance of HER2-Positive Breast Cancers” (Pharmaceuticals, 2022)", "key": {"HIPK3": {"biological_target": "T1, HIPK3 (Homo sapiens, UniProt Q9H422)", "T1 construct": "purchased Reaction Biology Corp", "parameters": "method as in HMS LINCS database", "details": "10 μM, ref HMS LINCS database; cited from earlier work"}, "STK36": {"tested_on": "STK36", "parameters": "method as in HMS LINCS database", "details": "10 μM, ref HMS LINCS database; cited from earlier work"}, "ICK": {"biological_target": "T2, ICK (Homo sapiens, UniProt Q9UPZ9)", "T2 construct": "purchased Reaction Biology Corp", "T2 sequence (Q9UPZ9 whole entry)": "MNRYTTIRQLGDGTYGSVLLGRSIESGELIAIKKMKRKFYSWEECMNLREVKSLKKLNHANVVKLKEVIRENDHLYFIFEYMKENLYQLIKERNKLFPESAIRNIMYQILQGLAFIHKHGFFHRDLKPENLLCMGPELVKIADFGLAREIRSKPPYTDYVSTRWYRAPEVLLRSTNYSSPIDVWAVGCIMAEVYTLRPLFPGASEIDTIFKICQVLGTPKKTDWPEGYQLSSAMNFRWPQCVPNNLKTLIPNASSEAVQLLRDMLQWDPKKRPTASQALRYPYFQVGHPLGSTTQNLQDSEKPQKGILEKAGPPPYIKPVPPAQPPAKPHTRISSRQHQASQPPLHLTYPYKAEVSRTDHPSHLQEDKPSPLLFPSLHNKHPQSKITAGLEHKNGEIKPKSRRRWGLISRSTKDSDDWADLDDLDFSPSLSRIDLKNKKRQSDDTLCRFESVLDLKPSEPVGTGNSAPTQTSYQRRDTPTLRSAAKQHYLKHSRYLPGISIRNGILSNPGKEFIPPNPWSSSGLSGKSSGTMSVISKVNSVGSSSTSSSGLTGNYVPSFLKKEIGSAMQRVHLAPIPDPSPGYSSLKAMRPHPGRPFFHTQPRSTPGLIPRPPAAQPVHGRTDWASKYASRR", "parameters": "method as in HMS LINCS database", "details": "10 μM, ref HMS LINCS database; cited from earlier work"}, "ERK5": {"biological_target": "T3, ERK5 (Homo sapiens, UniProt Q13164)", "T3 construct": "purchased Reaction Biology Corp", "T3 sequence (Q13164 whole entry)": "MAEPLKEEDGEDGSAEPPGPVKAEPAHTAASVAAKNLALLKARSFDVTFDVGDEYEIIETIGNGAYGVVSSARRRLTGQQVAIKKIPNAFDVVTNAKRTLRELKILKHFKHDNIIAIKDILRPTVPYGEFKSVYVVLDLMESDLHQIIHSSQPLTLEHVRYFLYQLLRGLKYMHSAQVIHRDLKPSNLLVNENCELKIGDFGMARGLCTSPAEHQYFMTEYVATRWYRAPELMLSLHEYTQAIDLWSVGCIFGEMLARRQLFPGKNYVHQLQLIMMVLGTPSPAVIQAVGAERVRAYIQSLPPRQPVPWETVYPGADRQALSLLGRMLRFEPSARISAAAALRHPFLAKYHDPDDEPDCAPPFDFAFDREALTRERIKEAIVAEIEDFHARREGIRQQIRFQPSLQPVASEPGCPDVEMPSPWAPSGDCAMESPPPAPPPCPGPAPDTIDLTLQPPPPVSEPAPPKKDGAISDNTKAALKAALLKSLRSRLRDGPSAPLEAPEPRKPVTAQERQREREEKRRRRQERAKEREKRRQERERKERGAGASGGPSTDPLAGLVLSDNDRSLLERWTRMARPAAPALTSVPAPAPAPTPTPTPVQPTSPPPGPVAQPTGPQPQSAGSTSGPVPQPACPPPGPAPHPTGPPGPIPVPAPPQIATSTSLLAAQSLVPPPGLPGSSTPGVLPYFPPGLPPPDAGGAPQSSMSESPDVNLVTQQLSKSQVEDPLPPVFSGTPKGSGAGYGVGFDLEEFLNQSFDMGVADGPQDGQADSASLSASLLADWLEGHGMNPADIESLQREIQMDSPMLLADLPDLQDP", "parameters": "method as in HMS LINCS database", "details": "10 μM, ref HMS LINCS database; cited from earlier work"}, "TAOK1": {"biological_target": "T4, TAOK1 (Homo sapiens, UniProt Q7L7X3)", "T4 construct": "purchased Reaction Biology Corp", "parameters": "method as in HMS LINCS database", "details": "10 μM, ref HMS LINCS database; cited from earlier work"}, "DYRK1A": {"biological_target": "T5, DYRK1A (Homo sapiens, UniProt Q13627)", "T5 construct": "purchased Reaction Biology Corp", "parameters": "method as in HMS LINCS database", "details": "10 μM, ref HMS LINCS database; cited from earlier work"}, "TLK1": {"biological_target": "T6, TLK1 (Homo sapiens, UniProt Q9UKI8)", "T6 construct": "purchased Reaction Biology Corp", "T6 sequence (Q9UKI8 whole entry)": "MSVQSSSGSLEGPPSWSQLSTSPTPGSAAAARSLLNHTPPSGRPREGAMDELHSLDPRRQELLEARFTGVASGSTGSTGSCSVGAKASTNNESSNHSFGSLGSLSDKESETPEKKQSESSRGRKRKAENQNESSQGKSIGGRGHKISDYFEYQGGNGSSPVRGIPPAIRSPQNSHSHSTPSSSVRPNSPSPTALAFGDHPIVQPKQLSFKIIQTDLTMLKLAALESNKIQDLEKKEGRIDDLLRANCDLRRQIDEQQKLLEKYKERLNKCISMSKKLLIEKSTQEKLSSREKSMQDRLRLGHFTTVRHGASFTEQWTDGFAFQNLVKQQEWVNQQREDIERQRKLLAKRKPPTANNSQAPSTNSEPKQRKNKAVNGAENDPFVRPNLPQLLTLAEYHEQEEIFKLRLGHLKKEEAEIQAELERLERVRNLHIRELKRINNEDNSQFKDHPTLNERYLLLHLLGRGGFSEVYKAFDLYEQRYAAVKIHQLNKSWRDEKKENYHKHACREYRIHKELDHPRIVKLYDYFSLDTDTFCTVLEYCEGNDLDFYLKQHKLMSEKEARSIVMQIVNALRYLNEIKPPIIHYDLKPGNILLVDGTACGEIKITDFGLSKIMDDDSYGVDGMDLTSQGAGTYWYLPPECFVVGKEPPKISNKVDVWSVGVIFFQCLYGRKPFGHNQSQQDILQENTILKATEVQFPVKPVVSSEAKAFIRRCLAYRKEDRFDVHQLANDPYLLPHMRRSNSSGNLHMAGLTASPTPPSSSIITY", "parameters": "method as in HMS LINCS database", "details": "10 μM, ref HMS LINCS database; cited from earlier work"}, "GSK3a": {"biological_target": "T7, GSK3a (Homo sapiens, UniProt P49840)", "T7 construct": "purchased Reaction Biology Corp", "T7 sequence (P49840 whole entry)": "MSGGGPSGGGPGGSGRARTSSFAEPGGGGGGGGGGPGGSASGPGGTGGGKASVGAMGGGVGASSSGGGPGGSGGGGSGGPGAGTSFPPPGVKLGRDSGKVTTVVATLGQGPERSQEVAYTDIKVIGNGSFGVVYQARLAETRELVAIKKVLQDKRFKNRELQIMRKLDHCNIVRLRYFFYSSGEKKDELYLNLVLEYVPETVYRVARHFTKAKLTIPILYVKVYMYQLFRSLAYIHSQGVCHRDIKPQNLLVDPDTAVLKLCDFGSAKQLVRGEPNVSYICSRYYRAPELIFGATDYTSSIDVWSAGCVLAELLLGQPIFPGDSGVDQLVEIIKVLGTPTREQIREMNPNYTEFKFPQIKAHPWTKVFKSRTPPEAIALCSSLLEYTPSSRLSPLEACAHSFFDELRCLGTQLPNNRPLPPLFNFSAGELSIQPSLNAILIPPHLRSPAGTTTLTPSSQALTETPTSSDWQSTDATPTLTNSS", "parameters": "method as in HMS LINCS database", "details": "10 μM, ref HMS LINCS database; cited from earlier work"}, "CDK4-cyclinD3": {"tested_on": "CDK4-cyclinD3", "parameters": "method as in HMS LINCS database", "details": "10 μM, ref HMS LINCS database; cited from earlier work"}, "CDKL5": {"tested_on": "CDKL5", "parameters": "method as in HMS LINCS database", "details": "10 μM, ref HMS LINCS database; cited from earlier work"}, "HIPK2": {"biological_target": "T8, HIPK2 (Homo sapiens, UniProt Q9H2X6)", "T8 construct": "purchased Reaction Biology Corp", "parameters": "method as in HMS LINCS database", "details": "10 μM, ref HMS LINCS database; cited from earlier work"}, "CDC2L5": {"tested_on": "CDC2L5", "parameters": "method as in HMS LINCS database", "details": "10 μM, ref HMS LINCS database; cited from earlier work"}, "CLK2": {"biological_target": "T9, CLK2 (Homo sapiens, UniProt P49760)", "T9 construct": "purchased Reaction Biology Corp", "parameters": "method as in HMS LINCS database", "details": "10 μM, ref HMS LINCS database; cited from earlier work"}, "CDK4-cyclinD1": {"tested_on": "CDK4-cyclinD1", "parameters": "method as in HMS LINCS database", "details": "10 μM, ref HMS LINCS database; cited from earlier work"}, "TAOK2": {"biological_target": "T10, TAOK2 (Homo sapiens, UniProt Q9UL54)", "T10 construct": "purchased Reaction Biology Corp", "T10 sequence (Q9UL54 whole entry)": "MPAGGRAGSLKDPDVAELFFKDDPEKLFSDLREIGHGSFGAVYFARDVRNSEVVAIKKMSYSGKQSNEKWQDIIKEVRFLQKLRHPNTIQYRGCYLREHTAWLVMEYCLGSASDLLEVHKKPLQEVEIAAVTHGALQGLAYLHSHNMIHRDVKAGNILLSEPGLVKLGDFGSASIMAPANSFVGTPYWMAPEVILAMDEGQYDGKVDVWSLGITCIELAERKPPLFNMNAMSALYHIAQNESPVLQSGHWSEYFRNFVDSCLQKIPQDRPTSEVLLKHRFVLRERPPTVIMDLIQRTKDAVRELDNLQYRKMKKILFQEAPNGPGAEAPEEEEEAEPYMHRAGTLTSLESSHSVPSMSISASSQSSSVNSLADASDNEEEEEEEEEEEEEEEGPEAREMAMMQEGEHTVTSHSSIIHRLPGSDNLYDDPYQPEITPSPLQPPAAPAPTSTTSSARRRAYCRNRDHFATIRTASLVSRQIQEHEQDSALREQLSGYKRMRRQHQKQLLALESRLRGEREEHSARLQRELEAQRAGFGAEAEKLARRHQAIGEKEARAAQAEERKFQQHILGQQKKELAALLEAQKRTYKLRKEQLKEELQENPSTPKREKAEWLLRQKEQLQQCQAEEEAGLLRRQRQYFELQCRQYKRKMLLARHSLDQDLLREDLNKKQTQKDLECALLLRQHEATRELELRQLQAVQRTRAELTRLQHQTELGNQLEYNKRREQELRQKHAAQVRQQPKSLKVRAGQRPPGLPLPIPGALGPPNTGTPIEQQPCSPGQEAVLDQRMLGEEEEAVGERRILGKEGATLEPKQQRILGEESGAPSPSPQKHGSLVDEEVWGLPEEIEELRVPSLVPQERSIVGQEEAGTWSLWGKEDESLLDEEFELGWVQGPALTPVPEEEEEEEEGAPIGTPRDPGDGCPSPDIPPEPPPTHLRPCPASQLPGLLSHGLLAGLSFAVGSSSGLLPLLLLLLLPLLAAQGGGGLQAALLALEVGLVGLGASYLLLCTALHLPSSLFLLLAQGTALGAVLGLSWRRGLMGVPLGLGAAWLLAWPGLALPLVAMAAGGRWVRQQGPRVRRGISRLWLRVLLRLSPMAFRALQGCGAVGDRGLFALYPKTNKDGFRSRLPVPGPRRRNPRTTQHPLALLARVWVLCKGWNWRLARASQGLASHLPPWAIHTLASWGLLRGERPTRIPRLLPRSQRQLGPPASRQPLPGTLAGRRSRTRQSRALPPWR", "parameters": "method as in HMS LINCS database", "details": "10 μM, ref HMS LINCS database; cited from earlier work"}, "CDK5": {"tested_on": "CDK5", "parameters": "method as in HMS LINCS database", "details": "10 μM, ref HMS LINCS database; cited from earlier work"}, "CDKL2": {"tested_on": "CDKL2", "parameters": "method as in HMS LINCS database", "details": "10 μM, ref HMS LINCS database; cited from earlier work"}, "DYRK1B": {"biological_target": "T11, DYRK1B (Homo sapiens, UniProt Q9Y463)", "T11 construct": "purchased Reaction Biology Corp", "parameters": "method as in HMS LINCS database", "details": "10 μM, ref HMS LINCS database; cited from earlier work"}, "CDK7": {"tested_on": "CDK7", "parameters": "method as in HMS LINCS database", "details": "10 μM, ref HMS LINCS database; cited from earlier work"}, "PFPK5(P.falciparum)": {"tested_on": "PFPK5(P.falciparum)", "parameters": "method as in HMS LINCS database", "details": "10 μM, ref HMS LINCS database; cited from earlier work"}, "YSK1": {"biological_target": "T12, YSK1 (Homo sapiens, UniProt O00506)", "T12 construct": "purchased Reaction Biology Corp", "T12 sequence (O00506 whole entry)": "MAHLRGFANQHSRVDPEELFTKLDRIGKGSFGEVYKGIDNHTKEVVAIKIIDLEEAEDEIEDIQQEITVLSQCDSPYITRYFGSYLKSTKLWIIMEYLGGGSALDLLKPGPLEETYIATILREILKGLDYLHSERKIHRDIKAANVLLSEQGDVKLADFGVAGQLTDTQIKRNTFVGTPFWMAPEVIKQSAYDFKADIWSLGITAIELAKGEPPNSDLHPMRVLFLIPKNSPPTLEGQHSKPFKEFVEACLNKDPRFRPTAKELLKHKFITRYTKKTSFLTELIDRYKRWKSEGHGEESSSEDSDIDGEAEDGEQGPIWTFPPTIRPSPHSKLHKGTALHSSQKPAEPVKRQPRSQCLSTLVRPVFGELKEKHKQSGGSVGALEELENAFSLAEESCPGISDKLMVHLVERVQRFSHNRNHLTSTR", "parameters": "method as in HMS LINCS database", "details": "10 μM, ref HMS LINCS database; cited from earlier work"}, "PKAC-alpha": {"tested_on": "PKAC-alpha", "test": "Kinome-wide inhibition profiling", "type": "biochemical, human", "details": "10 μM", "method": "(§1) In vitro CDK12/cyclinK assays for all compounds and in vitro kinome-wide inhibition profiling of 30d at 10 μM were performed by a CRO company (Reaction Biology Corp., San Diego, CA, USA)."}, "EPHA5": {"biological_target": "T13, EPHA5 (Homo sapiens, UniProt P54756)", "T13 construct": "purchased Reaction Biology Corp", "test": "Kinome-wide inhibition profiling", "type": "biochemical", "method": "as §1"}, "NLK": {"biological_target": "T14, NLK (Homo sapiens, UniProt Q9UBE8)", "T14 construct": "purchased Reaction Biology Corp", "T14 sequence (Q9UBE8 whole entry)": "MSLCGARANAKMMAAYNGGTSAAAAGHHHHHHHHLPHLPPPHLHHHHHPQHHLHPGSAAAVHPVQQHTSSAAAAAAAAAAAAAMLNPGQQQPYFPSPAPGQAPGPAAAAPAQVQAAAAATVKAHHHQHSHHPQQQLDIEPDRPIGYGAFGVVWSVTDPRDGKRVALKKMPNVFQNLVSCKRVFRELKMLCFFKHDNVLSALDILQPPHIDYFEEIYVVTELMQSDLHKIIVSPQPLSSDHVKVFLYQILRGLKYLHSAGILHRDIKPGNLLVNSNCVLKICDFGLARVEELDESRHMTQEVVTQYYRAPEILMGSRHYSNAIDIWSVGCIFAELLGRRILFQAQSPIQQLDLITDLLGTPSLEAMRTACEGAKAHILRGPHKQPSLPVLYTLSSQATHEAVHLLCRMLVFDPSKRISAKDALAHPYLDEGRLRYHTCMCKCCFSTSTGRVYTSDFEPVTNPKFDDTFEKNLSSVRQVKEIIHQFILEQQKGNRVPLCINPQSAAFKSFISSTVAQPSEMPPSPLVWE", "test": "Kinome-wide inhibition profiling", "type": "biochemical", "method": "as §1"}, "SK-Br3 cells": {"tested_on": "SK-Br3 cells", "test": "Combination with trastuzumab, growth inhibition", "type": "cell-based, human", "details": "40 nM 30d with multiple doses of trastuzumab, 72 h", "method": "(§2) Additionally, we examined a combination effect in both SK-Br3 and HCC1954 cells.\n(§3) Breast-cancer cells in culture media (100 μL volume/well, 5000 SK-Br3 cells/well, 1000 HCC-1954 cells/well) were seeded in tissue culture-treated 96-well plates, and incubated at a cell incubator for 24 h. Serially diluted compounds (3-fold, 10 point from 10 mM, duplicated) were pre-plated and 500 nL of compound solutions were pin-transferred to the cells in the assay plates using pintool system (JANUS liquid handler, PerkinElmer, Waltham, MA, USA) and incubated at a cell incubator for 72 h. Cell-titer Glo^TM reagent (50 μL, Promega Corp., Madison, WI, USA) was added to each well, and the luminescence signal was read using an Envision^TM plate reader (PerkinElmer, Waltham, MA, USA). The titration curve fitting and IC50 values were generated using Prism 7.0 s/w (GraphPad, San Diego, CA, USA)."}, "HCC1954 cells": {"tested_on": "HCC1954 cells", "test": "Combination with trastuzumab, growth inhibition", "type": "cell-based, human", "details": "40 nM 30d with multiple doses of trastuzumab, 72 h", "method": "as §2, §3"}}}
{"smiles": "CCc1cnn2c(NCc3ccc[n+]([O-])c3)cc(N3CCCC[C@H]3CCO)nc12", "note": "[Dinaciclib]", "values": [{"measurement": "% control", "setting": "HIPK3", "result": 4.4, "unit": "%"}, {"measurement": "% control", "setting": "STK36", "result": 7.8, "unit": "%"}, {"measurement": "% control", "setting": "ICK", "result": 0.9, "unit": "%"}, {"measurement": "% control", "setting": "ERK5", "result": 2.9, "unit": "%"}, {"measurement": "% control", "setting": "TAOK1", "result": 3.1, "unit": "%"}, {"measurement": "% control", "setting": "DYRK1A", "result": 6.0, "unit": "%"}, {"measurement": "% control", "setting": "TLK1", "result": 0.9, "unit": "%"}, {"measurement": "% control", "setting": "GSK3a", "result": 3.0, "unit": "%"}, {"measurement": "% control", "setting": "CDK4-cyclinD3", "result": 2.0, "unit": "%"}, {"measurement": "% control", "setting": "CDKL5", "result": 1.6, "unit": "%"}, {"measurement": "% control", "setting": "HIPK2", "result": 3.6, "unit": "%"}, {"measurement": "% control", "setting": "CDC2L5", "result": 0.3, "unit": "%"}, {"measurement": "% control", "setting": "CLK2", "result": 4.2, "unit": "%"}, {"measurement": "% control", "setting": "CDK4-cyclinD1", "result": 0.1, "unit": "%"}, {"measurement": "% control", "setting": "TAOK2", "result": 4.8, "unit": "%"}, {"measurement": "% control", "setting": "CDK5", "result": 1.8, "unit": "%"}, {"measurement": "% control", "setting": "CDKL2", "result": 10, "unit": "%"}, {"measurement": "% control", "setting": "DYRK1B", "result": 6.0, "unit": "%"}, {"measurement": "% control", "setting": "CDK7", "result": 0.4, "unit": "%"}, {"measurement": "% control", "setting": "PFPK5(P.falciparum)", "result": 1.2, "unit": "%"}, {"measurement": "% control", "setting": "YSK1", "result": 9.2, "unit": "%"}]}
{"smiles": "CCn1cnc2c(NCc3ccc(-c4ccccn4)nc3)nc(-c3ccc(N)nc3)nc21", "note": "[Compound 30d, N-([2,2′-Bipyridin]-5-ylmethyl)-2-(6-aminopyridin-3-yl)-9-ethyl-9H-purin-6-amine]", "values": [{"measurement": "% remaining activity", "setting": "PKAC-alpha", "result": 62.4, "unit": "%"}, {"measurement": "remaining activity at 10 µM", "setting": "EPHA5", "result": 5.9, "unit": "%"}, {"measurement": "remaining activity at 10 µM", "setting": "NLK", "result": 24.8, "unit": "%"}, {"measurement": "combination effect with trastuzumab in growth inhibition", "setting": "SK-Br3 cells", "result": "modest level of synergism"}, {"measurement": "combination effect with trastuzumab in growth inhibition", "setting": "HCC1954 cells", "result": "modest level of synergism"}]}
